# According to ChEMBL document CHEMBL3997820, “Synthesis and evaluation of anticonvulsant properties of new N-Mannich bases derived from pyrrolidine-2,5-dione and its 3-methyl-, 3-isopropyl, and 3-benzhydryl analogs” (Bioorg Med Chem Lett, 2017):
# Activity calls are given as the source filed them. The rule behind the calls is not given here.
# Assays:
# Mus musculus [1] = assay: Anticonvulsant activity in albino CD1 mouse assessed as protection against maximal electroshock-induced seizures at 300 mg/kg, ip measured after 4 hrs; assay type: functional, organism-based
# Mus musculus [2] = assay: Anticonvulsant activity in ip dosed albino CD1 mouse assessed as protection against 32 mA current-induced seizure by 6 Hz psychomotor test; assay type: functional
# Mus musculus [3] = assay: Anticonvulsant activity in ip dosed albino CD1 mouse assessed as protection against subcutaneous pentylenetetrazole-induced seizures; assay type: functional
# Mus musculus [4] = assay: Anticonvulsant activity in ip dosed albino CD1 mouse assessed as protection against maximal electroshock-induced seizures; assay type: functional
# Mus musculus [5] = assay: Anticonvulsant activity in albino CD1 mouse assessed as protection against 32 mA current-induced seizure at 100 mg/kg, ip after 0.5 hrs by 6 Hz psychomotor test; assay type: functional
# Mus musculus [6] = assay: Neurotoxicity in ip dosed albino CD1 mouse assessed as minimum dose required to induce motor impairment in half and more mouse measured after 4 hrs by rotarod test; assay type: toxicity, organism-based; conditions: in vivo
# Mus musculus [7] = assay: Neurotoxicity in ip dosed albino CD1 mouse assessed as minimum dose required to induce motor impairment in half and more mouse measured after 0.5 hrs by rotarod test; assay type: toxicity, organism-based; conditions: in vivo
# Mus musculus [8] = assay: Anticonvulsant activity in albino CD1 mouse assessed as protection against subcutaneous pentylenetetrazole-induced seizures at 300 mg/kg, ip measured after 0.5 hrs; assay type: functional, organism-based
# Mus musculus [9] = assay: Anticonvulsant activity in ip dosed albino CD1 mouse assessed as minimum dose required to protect subcutaneous pentylenetetrazole-induced seizures in half and more mouse measured after 4 hrs; assay type: functional
# Mus musculus [10] = assay: Anticonvulsant activity in ip dosed albino CD1 mouse assessed as minimum dose required to protect maximal electroshock-induced seizures in half and more mouse measured after 0.5 hrs; assay type: functional
# [11] = Neurotoxicity in ip dosed albino CD1 mouse assessed as motor impairment by rotarod test; assay type: toxicity, organism-based; conditions: in vivo
# Mus musculus [12] = assay: Protection index, ratio of TD50 for motor impairment in ip dosed albino CD1 mouse to ED50 for protection against maximal electroshock-induced seizures in ip dosed albino CD1 mouse
# Mus musculus [13] = assay: Protection index, ratio of TD50 for motor impairment in ip dosed albino CD1 mouse to ED50 for protection against subcutaneous pentylenetetrazole-induced seizures in ip dosed albino CD1 mouse
# Mus musculus [14] = assay: Protection index, ratio of TD50 for motor impairment in ip dosed albino CD1 mouse to ED50 for protection against 32 mA current-induced seizure in ip dosed albino CD1 mouse by 6 Hz psychomotor test
# Mus musculus [15] = assay: Anticonvulsant activity in ip dosed albino CD1 mouse assessed as protection against maximal electroshock-induced seizures by measuring time to peak effect; assay type: functional
# Mus musculus [16] = assay: Anticonvulsant activity in ip dosed albino CD1 mouse assessed as protection against subcutaneous pentylenetetrazole-induced seizures by measuring time to peak effect; assay type: functional
# Rattus norvegicus = species: Rattus norvegicus; assay: Inhibition of [3H]-BTX binding to voltage-sensitive Na+ channel site 2 in Sprague-Dawley rat cerebral cortex synaptoneurosomes at 100 uM after 60 mins by liquid scintillation spectroscopic method relative to control
# Homo sapiens = species: Homo sapiens; assay: Inhibition of N-type calcium channel (unknown origin)
structure (smiles),measurement,setting,value
O=C1CC(C(c2ccccc2)c2ccccc2)C(=O)N1CN1CCOCC1 (stereo not drawn),Activity,Mus musculus [1],inactive
same,ED50,Mus musculus [2],45.4 mg/kg
same,ED50,Mus musculus [3],102 mg/kg
same,ED50,Mus musculus [4],41 mg/kg
same,Activity,Mus musculus [5],100%
same,Activity,Mus musculus [6],300 mg/kg
same,Activity,Mus musculus [7],300 mg/kg
same,Activity,Mus musculus [8],inactive
same,Activity,Mus musculus [9],100 mg/kg
same,Activity,Mus musculus [10],100 mg/kg
same,TD50,[11],254 mg/kg
same,Ratio TD50/ED50,Mus musculus [12],6.2
same,Ratio TD50/ED50,Mus musculus [13],2.5
same,Ratio TD50/ED50,Mus musculus [14],5.59
same,Time,Mus musculus [15],0.5 h
same,Time,Mus musculus [16],4 h
same,inhibition,Rattus norvegicus,29.9%
same,inhibition,Homo sapiens,inactive
